Experimental data taken from patent US20240065988A1, “COMBINED USE OF KETAMINE AND RETIGABINE (EZOGABINE) FOR THE TREATMENT OF PSYCHIATRIC DISORDERS” (Yeda Research and Development Co. Ltd., priority 2021, published 2024).

Tests used:
[1] = system: primary hippocampal neurons; test: qPCR mRNA expression in primary hippocampal neurons treated with ketamine or HNKet; assay type: cell-based, mouse; conditions: 10 μM
Protocol: Primary hippocampal neurons were generated from E16.5 embryos using a standard primary neuron cell culture protocol previously described [K. G. Schraut et al., Eur JNeurosci (2021) 53: 390-401]. Briefly, dissected hippocampi were harvested in ice-cold dissection medium (HBSS, 7 mM HEPES, 2 mM L-glutamine, 500 U/ml penicillin-streptomycin, all Thermo Fisher Scientific). The tissue was incubated for 10 minutes in 0.25% Trypsin-EDTA with 8 mM HEPES (Thermo Fisher Scientific) in a water bath at 37° C. Tissue was washed three times with serum medium (DMEM, 10% FBS, Thermo Fisher Scientific). The cells were dissociated by titration using glass Pasteur pipets 10 in serum medium and filtered with a 70 tm cell strainer (Corning). Cell culture plates were coated overnight with 0.05 mg/ml poly-D-lysine mol wt 70,000-150,000 (Sigma Aldrich) in 0.15 M borate buffer (pH=8.5). Cells were seeded in 24-well plates at a density of 5×10^4 cells in 1 ml growth medium (Neurobasal A medium, 1 x B27 supplement, 0.25×GlutaMAX, all Thermo Fisher Scientific) per well. All cultures were kept in a humidified incubator at 37° C. and 5% CO2. Growth medium was renewed after 7 days of culture. For all experiments, mature twenty-one-day old primary neuronal cultures were used.
Primary hippocampal neurons were generated from E16.5 embryos and cultured for 21 days, as described above (see Primary Cell Culture). For experiment 1 (FIGS. 3A-K), neurons were treated with a saline solution, (R,S)-ketamine (10 μM) (Ketaset, Zoetis, Germany) or (2R,6R)-HNKet (10 μM) (Sigma, Cat #SML1873-25MG) for 0, 2, 12, 24 or 48 hours and compared to untreated controls. For experiment 2 (FIGS. 6A-D), neurons were stimulated with either a saline solution, (2R,6R)-HNKet (10 μM), or a combination of (2R,6R)-HNKet (10 μM) plus nifedipine (10 μM) (Tocris Bioscience, Cat #1075), W-7 hydrochloride (10 μM) (Tocris, Cat #0369), or cyclosporine-A (1 μM) (Tocris, Cat #1101) for 30 minutes, 1, 2, or 6 hours, and compared to untreated controls.
Ketamine treatment regulates Kcnq2 in primary hippocampal neurons To corroborate the previous findings in glutamatergic neurons, it was next examined whether treatment of primary hippocampal neurons with either (R,S)-ketamine or its active metabolite, (2R,6R)-hydroxynorketamine (HNKet), could modify the mRNA expression of the 8 genes tested earlier in glutamatergic neurons. Mouse primary hippocampal neurons are mostly made up of glutamatergic neurons and therefore make a very good model system to further validate the previous in vivo findings. […]

[2] = system: KCNQ channel (KCNQ2/3, M-current); test: Ex vivo patch-clamp recording of IM current density in CA1 pyramidal neurons of acute vHipp slices; set-up: species or system mouse; conditions: ketamine 10 mg/kg BW i.p., 36 hours before slice preparation vs saline

In the case of `CNC1(c2ccccc2Cl)CCCCC1=O` (racemic) [ketamine, (R,S)-ketamine], the “mRNA expression of Hspa8, Snap25, Hsp90ab1, Ndufa4, Ilf2, E2f1 and Kcnq2” value ([1]; 2, 12, 24 or 48 hours) is reported as “significant changes”, the “Kcnq2 mRNA expression” value ([1]; 2, 12, 24 or 48 hours vs untreated and saline controls) is reported as “significant upregulation at all time points tested” and the IM current density [2] is reported as “significant increase in IM current density”.
